Assay results published in patent US20140037715A1, “DISULFIRAM FORMULATION AND USES THEREOF” (UNIVERSITY OF WOLVERHAMPTON, priority 2010, published 2014).

Tests used:
S180 sarcoma = S180 sarcoma growth in mice; assay type: in vivo; conditions: S180 sarcoma bearing mice; DS 30 mg/kg oral, CuCl2 3 mg/kg oral
Procedure: An S180 mouse sarcoma (FIGS. 6A-6C) and MDA-MB-231 breast cancer cells (1×10^6) (FIG. 6D-6F) were subcutaneously injected into the rare frank of BALB/c and CD1 Nu/Nu mice respectively (S180: n=5; MDA-MB-231: n=6).
Five-week-old female athymic CD1 nude mice used in this study were housed under pathogen-free conditions. Human MDA-MB-231 breast cancer or mouse S180 sarcoma cells (1×10^6) were injected s.c. at one flank of the mice. Tumour volume (V) was determined by the equation: V=(L×W^2)×0.5, where L is the length and W is the width of the tumour. When xenografts reached volumes of ˜200 mm^3, the mice showing tumours were randomly grouped for the following treatments. The first day of drug treatment was designated as day 1.
Five groups (5 mice/group) were set up for mice with S180 sarcoma: 1. control, No treatment; 2. […] DS, non-encapsulated DS 30 mg/kg dissolved in vegetable oil, oral administration; 5. DS/Cu: DS 30 mg/kg oral and CuCl2 3 mg/kg oral.
The animals were subjected to different treatments when their tumours reached 2 mm in diameter. The drugs were administrated on Monday, Wednesday and Friday for two successive weeks. […] For the combination treatment groups, CuCl2 were administered in the morning.

Stability in plasma = assay type: in vitro ADME; conditions: after 25 hours
Stability in whole blood = assay type: in vitro ADME; conditions: after 5 hours
[1] = cited from earlier work
breast cancer cell lines = assay: MTT cytotoxicity assay in breast cancer cell lines; conditions: CuCl2 (10 μM) containing medium, 72 hours
Procedure: After 72 hours, the viability of the treated cells was determined by MTT assay.
The viability was determined by MTT assay.
(§1) All cell lines were cultured in DMEM (Lonza, Wokingham, UK) supplemented with 10% FCS, 50 units/ml penicillin, 50 μg/ml streptomycin. For in vitro cytotoxicity assay, cells [5,000/well (10,000/well for MDA-MB-231PAC10)] were cultured overnight in 96-well flat-bottomed microtiter plates then exposed to drugs for 72 h and subjected to a standard MTT assay (Plumb J A, et al Cancer Res 1989; 49(16):4435-40).
The cells were then subjected to MTT analysis as described above.

MCF7 = assay: MTT cytotoxicity assay, single drugs and combinations with Lipo-DS/Cu; assay type: cell-based; conditions: Homo sapiens, MCF7, 72 h
Procedure: as §1
(§2) The cells were then subjected to MTT analysis as described above. […] The combination index (CI) was determined by mutually exclusive equations.

MDA-MB-231 = assay: as above; assay type: cell-based; conditions: Homo sapiens, MDA-MB-231, 72 h
Procedure: as §1, §2

T47D = assay: as above; assay type: cell-based; conditions: Homo sapiens, 72 h
Procedure: as §1, §2

Q: Which “in vivo anticancer effect” value (S180 sarcoma) does the source give for `CCN(CC)C(=S)SSC(=S)N(CC)CC` [DS, disulfiram] here?
A: not detected

Q: What about the remaining in plasma (Stability in plasma) of the same compound?
A: about 15%

Q: And the “remaining in whole blood” value (Stability in whole blood)?
A: about 10%

Q: What about the blood concentration ([1]; after oral administration of a 500 mg dose) of the same compound?
A: below the limit of detection

Q: What about the “half-life in the blood stream” value ([1]; degraded by glutathione reductase system in erythrocytes) of the same compound?
A: 4 min

Q: And the “cytotoxicity to BC cell lines” value (breast cancer cell lines)?
A: comparable cytotoxicity

Q: With `COc1cccc2c1C(=O)c1c(O)c3c(c(O)c1C2=O)C[C@@](O)(C(=O)CO)C[C@@H]3O[C@H]1C[C@H](N)[C@H](O)[C@H](C)O1` [Dox alone, doxorubicin] as the compound, how does the IC50 (MCF7) read?
A: 440 nM

Q: What about the IC50 (MDA-MB-231) of the same compound?
A: 178 nM

Q: And the IC50 (T47D)?
A: 160 nM

Q: With `Nc1ccn([C@@H]2O[C@H](CO)[C@@H](O)C2(F)F)c(=O)n1` [GEM alone, gemcitabine] as the compound, how does the IC50 (MCF7) read?
A: 22.1 nM

Q: What about the IC50 (MDA-MB-231) of the same compound?
A: 12.3 nM

Q: And the IC50 (T47D)?
A: 35 nM

Q: With `CC(=O)O[C@H]1C(=O)[C@@]2(C)[C@H]([C@H](OC(=O)c3ccccc3)[C@]3(O)C[C@H](OC(=O)[C@H](O)[C@@H](NC(=O)c4ccccc4)c4ccccc4)C(C)=C1C3(C)C)[C@]1(OC(C)=O)CO[C@@H]1C[C@@H]2O` [Pac alone, paclitaxel] as the compound, how does the IC50 (MCF7) read?
A: 4.3 nM

Q: What about the IC50 (MDA-MB-231) of the same compound?
A: 9.3 nM

Q: And the IC50 (T47D)?
A: 2.6 nM
